From US8841413B2, “Antidiabetic compounds” (Cadila Healthcare Limited, priority 2006, dated 2014)
Like-named read-outs stand apart in the source and are kept apart here.

Assays:
[1] = Stability against liver microsomes; type: in vitro ADME, human; conditions: 2 μM, 37° C.; for half-life: human, microsomes, read-out: half-life (t1/2) with liver microsomes
Description: (§1) Reactions were terminated by the addition of TFA/H2O (15 mL, 10% (v/v)). […] The column was equilibrated with TFA/H2O, at a flow rate of 1 mL/min. […] The absorbance was monitored at 206 nm using UV detector and peaks were collected manually prior to ESI-MS analysis.

Human GLP-1 receptor = biological target: T1, Human GLP-1 receptor (Homo sapiens, UniProt P43220); type: cell-based
T1 construct: The full-length cDNA was cloned in pcDNA3.1(+); expressed in transfected cells
T1 sequence (P43220 24-463): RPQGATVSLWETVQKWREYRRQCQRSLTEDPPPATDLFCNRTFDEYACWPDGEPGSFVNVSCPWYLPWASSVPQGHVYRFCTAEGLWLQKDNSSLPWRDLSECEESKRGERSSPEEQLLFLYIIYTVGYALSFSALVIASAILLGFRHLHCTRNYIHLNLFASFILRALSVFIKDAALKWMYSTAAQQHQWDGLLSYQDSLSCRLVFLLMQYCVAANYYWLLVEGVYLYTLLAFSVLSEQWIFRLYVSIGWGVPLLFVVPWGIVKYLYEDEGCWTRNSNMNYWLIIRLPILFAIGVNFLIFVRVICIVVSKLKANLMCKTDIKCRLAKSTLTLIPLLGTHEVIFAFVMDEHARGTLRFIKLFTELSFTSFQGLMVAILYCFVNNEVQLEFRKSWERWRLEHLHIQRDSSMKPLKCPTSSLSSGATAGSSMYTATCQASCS
How it was run: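 Stably transfected CHO cells expressing human GLP-1R, passages 9-25, exposed to compounds for 30 min at 37 °C. Lysed in ice-cold 0.1 N HCl; total cAMP by immunoassay, protein by micro BCA; expressed as percent of water vehicle control, mean±SD.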

DPP IV = DPP IV (Homo sapiens, UniProt P27487); test: Stability against DPP IV enzyme; type: in vitro ADME; conditions: 2 μM, 37° C.; for half-life: read-out: half-life (t1/2) with DPP-IV enzyme
Chain of DPP IV (P27487 whole entry, species assumed): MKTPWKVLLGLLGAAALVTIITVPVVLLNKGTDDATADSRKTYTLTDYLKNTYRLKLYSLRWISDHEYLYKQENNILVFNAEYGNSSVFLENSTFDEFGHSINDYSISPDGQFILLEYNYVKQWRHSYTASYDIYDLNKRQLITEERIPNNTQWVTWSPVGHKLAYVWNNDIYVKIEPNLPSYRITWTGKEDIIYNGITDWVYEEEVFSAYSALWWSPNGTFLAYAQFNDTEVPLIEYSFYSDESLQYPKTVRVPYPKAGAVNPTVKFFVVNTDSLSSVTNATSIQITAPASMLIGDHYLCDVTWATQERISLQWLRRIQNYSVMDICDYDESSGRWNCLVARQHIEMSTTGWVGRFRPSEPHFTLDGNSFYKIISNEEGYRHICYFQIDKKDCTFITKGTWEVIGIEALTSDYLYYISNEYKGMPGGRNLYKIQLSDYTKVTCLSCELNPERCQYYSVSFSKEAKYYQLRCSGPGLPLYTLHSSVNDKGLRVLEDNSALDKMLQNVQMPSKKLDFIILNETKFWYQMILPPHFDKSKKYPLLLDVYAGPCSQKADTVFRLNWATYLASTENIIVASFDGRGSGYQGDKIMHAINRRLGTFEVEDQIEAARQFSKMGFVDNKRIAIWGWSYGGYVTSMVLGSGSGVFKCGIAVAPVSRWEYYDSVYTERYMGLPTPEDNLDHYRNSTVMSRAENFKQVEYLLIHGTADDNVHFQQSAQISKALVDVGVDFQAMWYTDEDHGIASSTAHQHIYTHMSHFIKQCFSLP
Description: as §1

[2] = Stability in simulated gastric fluid; type: in vitro ADME; conditions: 2 μM, 37° C., pH 1.5, pepsin; for half-life: simulated gi fluid, read-out: half-life (t1/2) in simulated gastric fluid
Description: as §1

[3] = Stability in simulated intestinal fluid; type: in vitro ADME; conditions: 2 μM, 37° C., pH 7.5; for half-life: simulated gi fluid, read-out: half-life (t1/2) in simulated intestinal fluid
Description: as §1

[4] = Stability in human plasma; type: in vitro ADME; conditions: 2 μM, 37° C.; for half-life: human, plasma, read-out: half-life (t1/2) in human plasma
Description: as §1

Row | SMILES | % degradation in 24 h when incubated with liver microsomes [1] [%] | half-life [1] [h] | Human GLP-1 R activity (cAMP release), % activity with respect to control (Human GLP-1 receptor; 1 nM test compound) [%] | Human GLP-1 R activity (cAMP release), % activity with respect to control (Human GLP-1 receptor; 10 nM test compound) [%] | Human GLP-1 R activity (cAMP release), % activity with respect to control (Human GLP-1 receptor; 100 nM test compound) [%] | Human GLP-1 R activity (cAMP release), % activity with respect to control (Human GLP-1 receptor; 1 μM test compound) [%] | Human GLP-1 R activity (cAMP release), % activity with respect to control (Human GLP-1 receptor; 10 μM test compound) [%] | % degradation in 24 h when incubated with DPP-IV enzyme (DPP IV) [%] | half-life (DPP IV) [h] | % degradation in 24 h when incubated with simulated gastric fluid [2] [%] | half-life [2] [h] | % degradation in 24 h when incubated with simulated intestinal fluid [3] [%] | half-life [3] [h] | % degradation in 24 h when incubated with human plasma [4] [%] | half-life [4] [h] | half-life (t1/2) with liver microsomes [1]
1 | CCc1cc(OC)ccc1-c1ccc(CC(NC(=O)[C@H](CC(=O)O)NC(=O)[C@H](CO)NC(=O)[C@@H](NC(=O)[C@H](Cc2ccccc2)NC(=O)[C@@H](NC(=O)CNC(=O)[C@H](CCC(N)=O)NC(=O)C(C)(C)NC(=O)[C@@H](N)Cc2c[nH]cn2)[C@@H](C)O)[C@@H](C)O)C(=O)NC(Cc2ccc(-c3ccccc3C)nc2)C(N)=O)cc1 (single isomer, unassigned) [compound 14] | 84 | 2 | 62 ± 0.11 | 94 ± 0.09 | 99 ± 0.06 | 99 ± 0.14 | 99 ± 0.19 | 00 | > 24 | 55 | 4 | 00 | > 24 | 00 | > 24 | –
2 | CCc1cc(OC)ccc1-c1ccc(CC(NC(=O)[C@H](CC(=O)O)NC(=O)[C@H](CO)NC(=O)[C@@H](NC(=O)C(C)(Cc2ccccc2F)NC(=O)[C@@H](NC(=O)CNC(=O)[C@H](CCC(N)=O)NC(=O)C2(NC(=O)[C@@H](N)Cc3c[nH]cn3)CC2)[C@@H](C)O)[C@@H](C)O)C(=O)NC(Cc2ccc(-c3ccccc3C)cc2)C(N)=O)cc1 (single isomer, unassigned) [compound 33] | 33 | – | 99 ± 0.11 | 99 ± 0.13 | 99 ± 0.16 | 99 ± 0.06 | 99 ± 0.10 | 00 | > 24 | 00 | > 24 | 00 | > 24 | 00 | > 24 | (5) h
3 | CCc1cc(OC)ccc1-c1ccc(CC(NC(=O)[C@H](CC(=O)O)NC(=O)[C@H](CO)NC(=O)[C@@H](NC(=O)C(C)(Cc2ccccc2F)NC(=O)[C@@H](NC(=O)CNC(=O)[C@H](CCC(N)=O)NC(=O)C(C)(C)NC(=O)[C@@H](N)Cc2c[nH]cn2)[C@@H](C)O)[C@@H](C)O)C(=O)NC(Cc2ccc(-c3ccccc3C(F)(F)F)cc2)C(N)=O)cc1 (single isomer, unassigned) [compound 32] | 32 | – | 99 ± 0.06 | 99 ± 0.06 | 99 ± 0.08 | 99 ± 0.10 | 99 ± 0.12 | 00 | > 24 | 00 | > 24 | 00 | > 24 | 00 | > 24 | (5) h
4 | CCc1cc(OC)ccc1-c1ccc(CC(NC(=O)[C@H](CC(=O)O)NC(=O)[C@H](CO)NC(=O)[C@@H](NC(=O)[C@H](Cc2ccccc2)NC(=O)[C@@H](NC(=O)CNC(=O)[C@H](CCC(N)=O)NC(=O)C2(NC(=O)[C@@H](N)Cc3c[nH]cn3)CC2)[C@@H](C)O)[C@@H](C)O)C(=O)NC(Cc2ccc(-c3ccccc3C(F)(F)F)cc2)C(N)=O)cc1 (single isomer, unassigned) [compound 20] | 80 | 2 | 96 ± 0.09 | 99 ± 0.07 | 99 ± 0.04 | 99 ± 0.01 | 99 ± 0.08 | 00 | > 24 | 41 | 4 | 00 | > 24 | 00 | > 24 | –
5 | CCc1cc(OC)ccc1-c1ccc(CC(NC(=O)[C@H](CC(=O)O)NC(=O)[C@H](CO)NC(=O)[C@@H](NC(=O)C(C)(Cc2ccccc2F)NC(=O)[C@@H](NC(=O)CNC(=O)[C@H](CCC(N)=O)NC(=O)C2(NC(=O)[C@@H](N)Cc3c[nH]cn3)CC2)[C@@H](C)O)[C@@H](C)O)C(=O)NC(Cc2ccc(-c3ccccc3C(F)(F)F)cc2)C(N)=O)cc1 (single isomer, unassigned) [compound 36] | 35 | – | 96 ± 0.09 | 99 ± 0.07 | 99 ± 0.04 | 99 ± 0.01 | 99 ± 0.08 | 00 | > 24 | 00 | > 24 | 00 | > 24 | 00 | > 24 | (5) h
6 | CCc1cc(OC)ccc1-c1ccc(CC(NC(=O)[C@H](CC(=O)O)NC(=O)[C@H](CO)NC(=O)[C@@H](NC(=O)[C@H](Cc2ccccc2)NC(=O)[C@@H](NC(=O)CNC(=O)[C@H](CCC(N)=O)NC(=O)C2(NC(=O)[C@@H](N)Cc3c[nH]cn3)CC2)[C@@H](C)O)[C@@H](C)O)C(=O)NC(Cc2ccc(-c3ccccc3F)cc2)C(N)=O)cc1 (single isomer, unassigned) [compound 19] | 84 | 2 | 96 ± 0.02 | 99 ± 0.46 | 99 ± 0.41 | 99 ± 0.66 | 99 ± 0.03 | 00 | > 24 | 43 | 4 | 00 | > 24 | 00 | > 24 | –
7 | CCc1cc(OC)ccc1-c1ccc(CC(NC(=O)[C@H](CC(=O)O)NC(=O)[C@H](CO)NC(=O)[C@@H](NC(=O)[C@H](Cc2ccccc2)NC(=O)[C@@H](NC(=O)CNC(=O)[C@H](CCC(N)=O)NC(=O)C(C)(C)NC(=O)[C@@H](N)Cc2c[nH]cn2)[C@@H](C)O)[C@@H](C)O)C(=O)NC(Cc2ccc(-c3ccccc3F)cc2)C(N)=O)cc1 (single isomer, unassigned) [compound 15] | 85 | 2 | 66 ± 0.022 | 97 ± 0.46 | 99 ± 0.41 | 99 ± 0.66 | 99 ± 0.03 | 00 | > 24 | 45 | 4 | 00 | > 24 | 00 | > 24 | –
